Patent publication US10017534B2, “Method for producing Tebbe complex” (KURARAY CO., LTD., priority 2014, dated 2018)

Assay: Measurement of solubility of Tebbe complex in a solvent (atomic absorption analysis of filtrate)
Conditions: for Solubility of Tebbe complex / Titanium atom contained in filtrate: 25° C.
Procedure: The measurement of the solubility of the Tebbe complex in a solvent was performed in the following manner. That is, 4 mL of a solvent of every kind was added to 1 g of a Tebbe complex obtained in the following Preparation Example 1; a solution after stirring at 25° C. for one hour was filtered with a membrane filter of 0.2 μm; the filtrate was subjected to atomic absorption analysis using the aforementioned polarized Zeeman atomic absorption spectrophotometer; and a titanium atom concentration was measured.
The measurement of the solubility of the Tebbe complex in a solvent was performed in the following manner. That is, 4 mL of a solvent of every kind was added to 1 g of the Tebbe complex obtained in Preparation Example 1; a solution after stirring at 25° C. for one hour was filtered with a membrane filter of 0.2 μm; and the filtrate was subjected to atomic absorption analysis using the aforementioned polarized Zeeman atomic absorption spectrophotometer, thereby measuring a titanium atom concentration.
Using a glove box, 1.0 g of the brownish-red crystal b1 of the Tebbe complex obtained in the method of Preparation Example 1 was weighed in a 20-mL eggplant type flask in an argon atmosphere, and a rotator and 4 mL of dehydrated hexane were added, followed by stirring at 25° C. for one hour. Thereafter, the resultant was allowed to stand and then filtered with a membrane filter of 0.2 μm, and 1.0 g of a filtrate containing the Tebbe complex was subjected to atomic absorption analysis, thereby measuring the solubility of the Tebbe complex.

## μ-chloro-μ-methylene-bis(η^5-cyclopentadienyl)titanium dimethylaluminum [Tebbe complex]
1,4-dioxane
  Solubility of Tebbe complex: 1.43 mmol/g
  Titanium atom contained in filtrate: 6.84 % by mass
2-hexene
  Solubility of Tebbe complex: 0.27 mmol/g
  Titanium atom contained in filtrate: 1.29 % by mass
2-methylpentane
  Solubility of Tebbe complex: 0.21 mmol/g
  Titanium atom contained in filtrate: 1.01 % by mass
Aliphatic hydrocarbons of Test Examples 1 to 6, 25° C.
  solubility of the Tebbe complex in 1 g of the solvent: ≤ 0.5 mmol/g
Aromatic hydrocarbons and ether compounds of Comparative Test Examples 1 to 8, 25° C.
  solubility of the Tebbe complex in 1 g of the solvent: more than 0.5 mmol/g
benzene
  Solubility of Tebbe complex: 1.18 mmol/g
  Titanium atom contained in filtrate: 5.65 % by mass
cyclohexane
  Solubility of Tebbe complex: 0.45 mmol/g
  Titanium atom contained in filtrate: 2.15 % by mass
Cyclopentyl methyl ether
  Solubility of Tebbe complex: 1.29 mmol/g
  Titanium atom contained in filtrate: 6.17 % by mass
Diisopropyl ether
  Solubility of Tebbe complex: 0.60 mmol/g
  Titanium atom contained in filtrate: 2.87 % by mass
dodecane
  Solubility of Tebbe complex: 0.12 mmol/g
  Titanium atom contained in filtrate: 0.57 % by mass
heptane
  Solubility of Tebbe complex: 0.21 mmol/g
  Titanium atom contained in filtrate: 1.01 % by mass
hexane
  Solubility of Tebbe complex: 0.22 mmol/g
  Titanium atom contained in filtrate: 1.05 % by mass
Methylene chloride
  Solubility of Tebbe complex: 1.49 mmol/g
  Titanium atom contained in filtrate: 7.13 % by mass
p-xylene
  Solubility of Tebbe complex: 0.94 mmol/g
  Titanium atom contained in filtrate: 4.50 % by mass
tetrahydrofuran
  Solubility of Tebbe complex: 1.71 mmol/g
  Titanium atom contained in filtrate: 8.19 % by mass
toluene
  Solubility of Tebbe complex: 0.93 mmol/g
  Titanium atom contained in filtrate: 4.45 % by mass
